The values that follow come from patent publication US20230279025A1, “KRAS G12D INHIBITORS” (Mirati Therapeutics, Inc., priority 2020, published 2023).

pIC50, pKd: −log10 of the molar value.

The target in assay [1] is T1, KRas G12D (Homo sapiens (Human), UniProt P01116, G12D). Nature of the assay: KRas G12D Surface Plasmon Resonance (SPR) Binding Assay. The following applies: Biacore T200, immobilized biotinylated KRAS protein, 1:1 binding model.
Target sequence in this assay (P01116-2 other isoform, or with tags, fused parts or gaps G12D): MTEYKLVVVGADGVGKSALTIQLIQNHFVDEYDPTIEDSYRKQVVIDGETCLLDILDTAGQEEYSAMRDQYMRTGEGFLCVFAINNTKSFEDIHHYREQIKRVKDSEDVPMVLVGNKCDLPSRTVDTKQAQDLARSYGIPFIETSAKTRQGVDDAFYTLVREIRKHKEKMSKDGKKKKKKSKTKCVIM
Assay [2] concerns the target T1, KRas G12D. Description: KRas G12D Binding Assay (TR-FRET displacement of Cy5 labelled tracer). The following applies: GDP-loaded KRAS G12D (amino acids 1:169), 60 minute incubation at 22° C. On the procedure: After a 60 minute incubation at 22° C., the reaction was measured using a PerkinElmer EnVision multimode plate reader via TR-FRET dual wavelength detection, and the percent of control (POC) calculated using a ratiometric emission factor. […] The POC values were fit to a 4-parameter logistic curve and the IC50 value was determined as the concentration where the curve crosses 50 POC.
ND stands for “not determined.”
Target sequence in this assay (P01116 other isoform, or with tags, fused parts or gaps G12D): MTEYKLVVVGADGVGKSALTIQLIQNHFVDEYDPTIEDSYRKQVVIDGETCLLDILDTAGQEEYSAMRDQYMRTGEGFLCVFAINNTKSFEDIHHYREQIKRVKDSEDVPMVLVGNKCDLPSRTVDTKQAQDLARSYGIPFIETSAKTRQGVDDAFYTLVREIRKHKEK

In assay [1], `CN1C[C@H](F)C[C@H]1COc1nc(N2C[C@H]3CC[C@@H](C2)N3)c2cnc(-c3cccc4cccc(Cl)c34)c(F)c2n1` [Example 115, 4-((1R,5S)-3,8-diazabicyclo[3.2.1]octan-3-yl)-7-(8-chloronaphthalen-1-yl)-8-fluoro-2-(((2S,4R)-4-fluoro-1-methylpyrrolidin-2-yl)methoxy)pyrido[4,3-d]pyrimidine] showed a pKd of 3.48. Further, in assay [2], the pIC50 is 6.76.
With `Oc1cc(-c2ncc3c(N4C[C@H]5CC[C@@H](C4)N5)nc(N4CCCC4)nc3c2F)c2ccccc2c1` [Example 118, 4-(4-((1R,5S)-3,8-diazabicyclo[3.2.1]octan-3-yl)-8-fluoro-2-(pyrrolidin-1-yl)pyrido[4,3-d]pyrimidin-7-yl)naphthalen-2-ol 2,2,2-trifluoroacetate], the pKd in assay [1] is 5.97. Besides, the pIC50 in assay [2] was 6.32.
In assay [1], `Fc1c(-c2cccc3cccc(Cl)c23)ncc2c(N3C[C@H]4CC[C@@H](C3)N4)nc(OCC34CCCN3CCC4)nc12` [Example 45, 4-((1R,5S)-3,8-diazabicyclo[3.2.1]octan-3-yl)-7-(8-chloronaphthalen-1-yl)-8-fluoro-2-((tetrahydro-1H-pyrrolizin-7a(5H)-yl)methoxy)pyrido[4,3-d]pyrimidine] showed a negative logarithm of the Kd (pKd) of 8.29. The molecule also gave a pIC50 in assay [2] of 8.26.
For `OC[C@@H](O)COc1nc(N2C[C@H]3CC[C@@H](C2)N3)c2cnc(-c3cccc4cccc(Cl)c34)c(F)c2n1` [Example 56, (R)-3-((4-((1R,5S)-3,8-diazabicyclo[3.2.1]octan-3-yl)-7-(8-chloronaphthalen-1-yl)-8-fluoropyrido[4,3-d]pyrimidin-2-yl)oxy)propane-1,2-diol], the pKd in assay [1] was 5.29. This molecule gave a pIC50 in assay [2] of 5.23.
On the same counts, the results for `Cc1cccnc1CCOc1nc(N2C[C@H]3CC[C@@H](C2)N3)c2cnc(-c3cc(O)cc4ccccc34)c(F)c2n1` [Example 6, 4-(4-((1R,5S)-3,8-diazabicyclo[3.2.1]octan-3-yl)-8-fluoro-2-(2-(3-methylpyridin-2-yl)ethoxy)pyrido[4,3-d]pyrimidin-7-yl)naphthalen-2-ol] are 6.35 and 6.36.
In assay [1], `CN1CCC[C@H]1COc1nc(N2C[C@H]3CC[C@@H](C2)N3)c2cnc(-c3cccc4c3CCCC4)c(F)c2n1` [Example 21, 4-((1R,5S)-3,8-diazabicyclo[3.2.1]octan-3-yl)-8-fluoro-2-(((S)-1-methylpyrrolidin-2-yl)methoxy)-7-(5,6,7,8-tetrahydronaphthalen-1-yl)pyrido[4,3-d]pyrimidine] showed a pKd of 6.35. In assay [2], this molecule had a pIC50 of 6.58.
On the same counts, the results for `Cn1ccnc1CCNc1nc(N2C[C@H]3CC[C@@H](C2)N3)c2cnc(-c3cc(O)cc4ccccc34)c(F)c2n1` [Example 111, 4-(4-((1R,5S)-3,8-diazabicyclo[3.2.1]octan-3-yl)-8-fluoro-2-((2-(1-methyl-1H-imidazol-2-yl)ethyl)amino)pyrido[4,3-d]pyrimidin-7-yl)naphthalen-2-ol] are 6.56 and 6.55.
The like results for `CN1CCC[C@H]1COc1nc(N2C[C@H]3CC[C@@H](C2)N3)c2cnc(-c3cccc4ccccc34)c(F)c2n1` [Example 20, 4-((1R,5S)-3,8-diazabicyclo[3.2.1]octan-3-yl)-8-fluoro-2-(((S)-1-methylpyrrolidin-2-yl)methoxy)-7-(naphthalen-1-yl)pyrido[4,3-d]pyrimidine] were, in that order, 6.01 and 6.16.
The like results for `Oc1cc(-c2ncc3c(N4C[C@H]5CC[C@@H](C4)N5)nc(OCC(F)(F)F)nc3c2F)c2ccccc2c1` [Example 48, 4-(4-((1R,5S)-3,8-diazabicyclo[3.2.1]octan-3-yl)-8-fluoro-2-(2,2,2-trifluoroethoxy)pyrido[4,3-d]pyrimidin-7-yl)naphthalen-2-ol] were, in that order, 6.03 and 6.36.
For `C#Cc1cccc2cccc(-c3ncc4c(N5C[C@H]6CC[C@@H](C5)N6)nc(OCC56CCCN5CCC6)nc4c3F)c12` [Example 179, 4-((1R,5S)-3,8-diazabicyclo[3.2.1]octan-3-yl)-7-(8-ethynylnaphthalen-1-yl)-8-fluoro-2-((hexahydro-1H-pyrrolizin-7a-yl)methoxy)pyrido[4,3-d]pyrimidine], the pKd in assay [1] was 10.00. The molecule also had a pIC50 in assay [2] of 8.96.
The like results for `OCCCOc1nc(N2C[C@H]3CC[C@@H](C2)N3)c2cnc(-c3cc(O)cc4ccccc34)c(F)c2n1` [Example 75, 4-(4-((1R,5S)-3,8-diazabicyclo[3.2.1]octan-3-yl)-8-fluoro-2-(3-hydroxypropoxy)pyrido[4,3-d]pyrimidin-7-yl)naphthalen-2-ol] were, in that order, 6.52 and 6.62.
The like results for `OC[C@H](O)COc1nc(N2C[C@H]3CC[C@@H](C2)N3)c2cnc(-c3cccc4cccc(Cl)c34)c(F)c2n1` [Example 55, (S)-3-((4-((1R,5S)-3,8-diazabicyclo[3.2.1]octan-3-yl)-7-(8-chloronaphthalen-1-yl)-8-fluoropyrido[4,3-d]pyrimidin-2-yl)oxy)propane-1,2-diol] were, in that order, 4.65 and 5.21.
The like results for `Cc1c(-c2cc(O)cc3ccccc23)ncc2c(N3C[C@H]4CC[C@@H](C3)N4)nc(OC[C@@H]3CCCN3C)nc12` [Example 190, 4-(4-((1R,5S)-3,8-diazabicyclo[3.2.1]octan-3-yl)-8-methyl-2-(((S)-1-methylpyrrolidin-2-yl)methoxy)pyrido[4,3-d]pyrimidin-7-yl)naphthalen-2-ol] were, in that order, 7.12 and 7.19.
Molecule `Cc1cccc2cccc(-c3ncc4c(N5C[C@H]6CC[C@@H](C5)N6)nc(OCCc5nccn5C)nc4c3F)c12` [Example 100, 4-((1R,5S)-3,8-diazabicyclo[3.2.1]octan-3-yl)-8-fluoro-2-(2-(1-methyl-1H-imidazol-2-yl)ethoxy)-7-(8-methylnaphthalen-1-yl)pyrido[4,3-d]pyrimidine] showed a pKd in assay [1] of 5.96. This molecule had a pIC50 in assay [2] of 5.71.
On the same counts, the results for `Fc1c(-c2cccc3ccccc23)ncc2c(N3C[C@H]4CC[C@@H](C3)N4)nc(OC[C@@H]3CCCN3Cc3ccccc3)nc12` [Example 108, 2-(((S)-1-benzylpyrrolidin-2-yl)methoxy)-4-((1R,5S)-3,8-diazabicyclo[3.2.1]octan-3-yl)-8-fluoro-7-(naphthalen-1-yl)pyrido[4,3-d]pyrimidine] are 4.20 and 5.32.
The like results for `CO[C@@H]1C[C@@H](COc2nc(N3C[C@H]4CC[C@@H](C3)N4)c3cnc(-c4cc(O)cc5ccccc45)c(F)c3n2)N(C)C1` [Example 42, 4-(4-((1R,5S)-3,8-diazabicyclo[3.2.1]octan-3-yl)-8-fluoro-2-(((2S,4R)-4-methoxy-1-methylpyrrolidin-2-yl)methoxy)pyrido[4,3-d]pyrimidin-7-yl)naphthalen-2-ol] were, in that order, 8.25 and 8.51.
The like results for `Cn1ccnc1CCOc1nc(N2C[C@H]3CC[C@@H](C2)N3)c2cnc(-c3cccc4ccc(F)cc34)c(F)c2n1` [Example 112, 4-((1R,5S)-3,8-diazabicyclo[3.2.1]octan-3-yl)-8-fluoro-7-(7-fluoronaphthalen-1-yl)-2-(2-(1-methyl-1H-imidazol-2-yl)ethoxy)pyrido[4,3-d]pyrimidine] were, in that order, 6.01 and 6.14.
Take `CC(C)Cn1ccnc1CCOc1nc(N2C[C@H]3CC[C@@H](C2)N3)c2cnc(-c3cc(O)cc4ccccc34)c(F)c2n1` [Example 85, 4-(4-((1R,5S)-3,8-diazabicyclo[3.2.1]octan-3-yl)-8-fluoro-2-(2-(1-isobutyl-1H-imidazol-2-yl)ethoxy)pyrido[4,3-d]pyrimidin-7-yl)naphthalen-2-ol]: the pKd in assay [1] is 6.83. The same molecule showed a pIC50 in assay [2] of 6.34.
The molecule `Oc1cc(-c2ncc3c(N4C[C@H]5CC[C@@H](C4)N5)nc(N4CC5(CCOC5)C4)nc3c2F)c2ccccc2c1` [Example 76, 4-(4-((1R,5S)-3,8-diazabicyclo[3.2.1]octan-3-yl)-8-fluoro-2-(6-oxa-2-azaspiro[3.4]octan-2-yl)pyrido[4,3-d]pyrimidin-7-yl)naphthalen-2-ol] gave a pKd in assay [1] of 6.71. In addition, the pIC50 in assay [2] was 6.88.
The like results for `CN1CCC[C@H]1COc1nc(N2C[C@H]3CC[C@@H](C2)N3)c2cnc(-c3cccc4cccc(Cl)c34)cc2n1` [Example 123, 4-((1R,5S)-3,8-diazabicyclo[3.2.1]octan-3-yl)-7-(8-chloronaphthalen-1-yl)-2-(((S)-1-methylpyrrolidin-2-yl)methoxy)pyrido[4,3-d]pyrimidine] were, in that order, 6.10 and 6.12.
The molecule `CCCOc1nc(N2C[C@H]3CC[C@@H](C2)N3)c2cnc(-c3cc(O)cc4ccccc34)c(F)c2n1` [Example 47, 4-(4-((1R,5S)-3,8-diazabicyclo[3.2.1]octan-3-yl)-8-fluoro-2-propoxypyrido[4,3-d]pyrimidin-7-yl)naphthalen-2-ol] showed a pKd in assay [1] of 6.29. This molecule also gave a pIC50 in assay [2] of 6.58.
The like results for `CN(C)CCOc1nc(N2C[C@H]3CC[C@@H](C2)N3)c2cnc(-c3cc(O)cc4ccccc34)c(F)c2n1` [Example 18, 4-(4-((1R,5S)-3,8-diazabicyclo[3.2.1]octan-3-yl)-2-(2-(dimethylamino)ethoxy)-8-fluoropyrido[4,3-d]pyrimidin-7-yl)naphthalen-2-ol] were, in that order, 8.51 and 7.11.
On the same counts, the results for `Cn1ccnc1CCOc1nc(N2C[C@H]3C[C@@H](O)[C@@H](C2)N3)c2cnc(-c3cccc4cccc(Cl)c34)c(F)c2n1` [Example 173, (1R,5R,6R)-3-(7-(8-chloronaphthalen-1-yl)-8-fluoro-2-(2-(1-methyl-1H-imidazol-2-yl)ethoxy)pyrido[4,3-d]pyrimidin-4-yl)-3,8-diazabicyclo[3.2.1]octan-6-ol] are 6.93 and 7.00.
